Measurements taken from ChEMBL document CHEMBL4665724, “Structure-activity relationship analysis of dammarane-type natural products as muscle-type creatine kinase activators” (Bioorg Med Chem Lett, 2020).
The source made the active and inactive calls. The rule behind the calls is not given here.

Assays:
[1] = target: Creatine kinase M-type (Homo sapiens) (UniProt P06732); experiment: Binding affinity to recombinant human His-tagged CK-MM at 20 uM by Biolayer Interferometry analysis
[2] = target: Creatine kinase M-type (Homo sapiens) (UniProt P06732); experiment: Activation of human CK-MM assessed as increase in enzyme activity at 5 to 80 uM; settings: dose microM 5-80
[3] = target: Creatine kinase M-type (Homo sapiens) (UniProt P06732); experiment: Activation of human CK-MM assessed as increase in enzyme activity at 5 uM relative to control
[4] = target: Creatine kinase M-type (Oryctolagus cuniculus) (UniProt P00563); experiment: Activation of rabbit CK-MM assessed as increase in enzyme activity at 80 uM relative to control
[5] = target: Creatine kinase M-type (Homo sapiens) (UniProt P06732); experiment: Activation of human CK-MM assessed as increase in enzyme activity at 40 uM relative to control
[6] = target: Creatine kinase M-type (Homo sapiens) (UniProt P06732); experiment: Activation of human CK-MM assessed as increase in enzyme activity at 10 uM relative to control
[7] = target: Creatine kinase M-type (Oryctolagus cuniculus) (UniProt P00563); experiment: Activation of rabbit CK-MM assessed as increase in enzyme activity at 40 uM relative to control
[8] = target: Creatine kinase M-type (Homo sapiens) (UniProt P06732); experiment: Activation of human CK-MM assessed as increase in enzyme activity at 20 uM relative to control
[9] = target: Creatine kinase M-type (Oryctolagus cuniculus) (UniProt P00563); experiment: Activation of rabbit CK-MM assessed as increase in enzyme activity at 20 uM relative to control
[10] = target: Creatine kinase M-type (Oryctolagus cuniculus) (UniProt P00563); experiment: Binding affinity to rabbit CK-MM at 20 uM
[11] = target: Creatine kinase M-type (Homo sapiens) (UniProt P06732); experiment: Activation of human CK-MM assessed as increase in enzyme activity at 80 uM relative to control
[12] = target: Creatine kinase M-type (Oryctolagus cuniculus) (UniProt P00563); experiment: Activation of rabbit CK-MM assessed as increase in enzyme activity at 5 to 80 uM; settings: dose microM 5-80
[13] = target: Creatine kinase M-type (Oryctolagus cuniculus) (UniProt P00563); experiment: Activation of rabbit CK-MM assessed as increase in enzyme activity at 10 uM relative to control

Creatine kinase M-type (Oryctolagus cuniculus), sequence (P00563 whole entry): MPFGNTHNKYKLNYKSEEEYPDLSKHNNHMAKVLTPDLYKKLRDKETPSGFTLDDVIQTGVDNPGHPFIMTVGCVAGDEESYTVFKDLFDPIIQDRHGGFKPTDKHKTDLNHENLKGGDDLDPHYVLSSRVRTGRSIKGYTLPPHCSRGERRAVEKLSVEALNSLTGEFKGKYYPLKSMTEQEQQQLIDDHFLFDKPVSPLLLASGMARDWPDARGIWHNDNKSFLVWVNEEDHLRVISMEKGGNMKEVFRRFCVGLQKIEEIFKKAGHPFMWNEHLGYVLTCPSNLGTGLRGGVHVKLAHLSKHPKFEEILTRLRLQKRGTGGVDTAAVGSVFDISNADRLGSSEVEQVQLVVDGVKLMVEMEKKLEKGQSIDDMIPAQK
Creatine kinase M-type (Homo sapiens), sequence (P06732 whole entry): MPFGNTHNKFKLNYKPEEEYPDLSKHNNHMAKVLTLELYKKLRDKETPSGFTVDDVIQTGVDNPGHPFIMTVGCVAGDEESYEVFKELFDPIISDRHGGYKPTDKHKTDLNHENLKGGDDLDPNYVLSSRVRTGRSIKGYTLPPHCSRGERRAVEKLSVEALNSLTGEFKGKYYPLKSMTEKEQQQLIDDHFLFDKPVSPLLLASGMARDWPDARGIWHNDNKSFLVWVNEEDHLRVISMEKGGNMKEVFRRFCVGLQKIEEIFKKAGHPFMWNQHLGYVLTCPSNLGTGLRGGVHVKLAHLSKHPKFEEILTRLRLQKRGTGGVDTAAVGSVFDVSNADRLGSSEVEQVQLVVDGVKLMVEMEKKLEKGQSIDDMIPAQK

| SMILES | Activity ([1]; filed as activator) | Activity [3] [%] | Activity [5] [%] | Activity [6] [%] | Activity [8] [%] | Activity [11] [%] | other results |
| --- | --- | --- | --- | --- | --- | --- | --- |
| CC(C)(O)[C@H]1CC[C@@](C)([C@H]2CC[C@]3(C)[C@@H]2[C@H](O)C[C@@H]2[C@@]4(C)CC[C@H](O)C(C)(C)[C@@H]4CC[C@]23C)O1 |  |  |  |  |  |  | Activity [1]: inactive; Activity [2]: inactive |
| CC(C)=CCC[C@](C)(O)[C@H]1CC[C@]2(C)[C@@H]1[C@H](O)C[C@@H]1[C@@]3(C)CC[C@H](O)C(C)(C)[C@@H]3[C@@H](O)C[C@]12C | Active | 19.1 | 19.7 | 20.6 | 32.2 | 13.6 | Activity [4]: 2.1%; Activity [7]: 3.4%; Activity [9]: 4.4%; Activity ([10]; filed as activator): Active |
| CC(C)=CCC[C@](C)(O[C@@H]1O[C@H](CO)[C@@H](O)[C@H](O)[C@H]1O)[C@H]1CC[C@]2(C)[C@@H]1[C@H](O)C[C@@H]1[C@@]3(C)CC[C@H](O)C(C)(C)[C@@H]3[C@@H](O[C@@H]3O[C@H](CO)[C@@H](O)[C@H](O)[C@H]3O)C[C@]12C |  |  |  |  |  |  | Activity [12]: inactive; Activity [10]: inactive |
| CC(C)=C[C@H]1C[C@](C)(O)[C@@H]2[C@H]3CC[C@@H]4[C@@]5(C)CC[C@H](O)C(C)(C)[C@@H]5CC[C@@]4(C)[C@@]34CO[C@@]2(C4)O1 |  | 16.9 | 5.7 | 11.9 |  |  | Activity [1]: inactive |
| CC(C)=CCC[C@](C)(O)[C@H]1CC[C@]2(C)[C@@H]1[C@H](O)C[C@@H]1[C@@]3(C)CC[C@H](O[C@@H]4O[C@H](CO)[C@@H](O)[C@H](O)[C@H]4O)C(C)(C)[C@@H]3CC[C@]12C |  |  |  |  |  |  | Activity [7]: 3.5%; Activity [9]: 3.1%; Activity ([10]; filed as activator): Active |
| CC(C)(O)CCC[C@](C)(O)[C@H]1CC[C@]2(C)[C@@H]1[C@H](O)C[C@@H]1[C@@]3(C)CC[C@H](O)C(C)(C)[C@@H]3CC[C@]12C | Active | 17.3 | 7.5 | 8.6 |  | 15.6 |  |
| CC(C)=CCC[C@](C)(O[C@@H]1O[C@H](CO)[C@@H](O)[C@H](O)[C@H]1O)[C@H]1CC[C@]2(C)[C@@H]1[C@H](O)C[C@@H]1[C@@]3(C)CC[C@H](O[C@@H]4O[C@H](CO)[C@@H](O)[C@H](O)[C@H]4O[C@@H]4O[C@H](CO)[C@@H](O)[C@H](O)[C@H]4O)C(C)(C)[C@@H]3CC[C@]12C |  |  |  |  |  |  | Activity [12]: inactive; Activity [10]: inactive |
| CC1(C)[C@@H](O)CC[C@]2(C)[C@H]3C[C@@H](O)[C@@H]4[C@@H]([C@@](C)(O)CCC(=O)O)CC[C@@]4(C)[C@]3(C)CC[C@@H]12 | Active | 37.6 |  | 37.4 |  |  | Activity ([5]; filed as activator): 49.8%; Activity ([2]; filed as activator): Dose-dependent effect; Activity ([8]; filed as activator): 49.7%; Activity ([11]; filed as activator): 52.1% |
| CC(C)=CCC[C@](C)(O)[C@H]1CC[C@]2(C)[C@@H]1[C@H](O)C[C@@H]1[C@@]3(C)CC[C@H](O)C(C)(C)[C@@H]3CC[C@]12C | Active | 29.6 |  | 35.4 | 39.2 |  | Activity [13]: 9.3%; Activity ([5]; filed as activator): 54.3%; Activity [7]: 4.2%; Activity ([2]; filed as activator): Dose-dependent effect; Activity [9]: 4.3%; Activity ([10]; filed as activator): Active; Activity ([11]; filed as activator): 53.2% |
| CC1(C)CCC[C@](C)([C@H]2CC[C@]3(C)[C@@H]2[C@H](O)C[C@@H]2[C@@]4(C)CC[C@H](O)C(C)(C)[C@@H]4CC[C@]23C)O1 | Active |  | 14.4 |  | 7.1 | 15.4 |  |
| CC1(C)CCC[C@](C)([C@H]2CC[C@]3(C)[C@@H]2[C@H](O)C[C@@H]2[C@@]4(C)CC[C@H](O)C(C)(C)[C@@H]4[C@H](O)C[C@]23C)O1 |  |  |  |  |  |  | Activity [1]: inactive; Activity [2]: inactive |
| CC(C)=CCC[C@@](C)(O)[C@H]1CC[C@]2(C)[C@@H]1[C@H](O)C[C@@H]1[C@@]3(C)CC[C@H](O)C(C)(C)[C@@H]3CC[C@]12C | Active | 12.6 | 14.3 | 14.7 | 23.5 | 10.2 |  |
